Measurements: patent US10597388B2, “Pyridazinone herbicides” (FMC CORPORATION, priority 2014, dated 2020)

Key:
Assay type in all cases: in vivo
[1] = tested on: oat, wild (wild oat, Avena fatua); assay: Test C greenhouse herbicide test, postemergence
From the text: (§1) At the same time, plants selected from these crop and weed species and also chickweed (common chickweed, Stellaria media), kochia (Kochia scoparia), and oat, wild (wild oat, Avena fatua), were planted in pots containing Redi-Earth® planting medium (Scotts Company, 14111 Scottslawn Road, Marysville, Ohio 43041) comprising spaghnum peat moss, vermiculite, wetting agent and starter nutrients and treated with postemergence applications of test chemicals formulated in the same manner. Plants ranged in height from 2 to 18 cm (1- to 4-leaf stage) for postemergence treatments. Treated plants and controls were maintained in a greenhouse for 13 to 15 d, after which time all species were compared to controls and visually evaluated. Plant response ratings, summarized in Table C, are based on a scale of 0 to 100 where 0 is no effect and 100 is complete control. A dash (-) response means no test result.

kochia (Kochia scoparia) = assay: Test C greenhouse herbicide test, postemergence
From the text: as §1

[2] = tested on: wheat (winter wheat, Triticum aestivum); assay: Test C greenhouse herbicide test, pre- and postemergence
From the text: (§2) Seeds of plant species selected from blackgrass (Alopecurus myosuroides), ryegrass, Italian (Italian ryegrass, Lolium multiflorum), wheat (winter wheat, Triticum aestivum), galium (catchweed bedstraw, Galium aparine), corn (Zea mays), large crabgrass, large (large crabgrass, Digitaria sanguinalis), foxtail, giant (giant foxtail, Setaria faberii), johnsongrass (Sorghum halepense), lambsquarters (Chenopodium album), morningglory (Ipomoea coccinea), nutsedge, yellow (yellow nutsedge, Cyperus esculentus), pigweed (Amaranthus retroflexus), ragweed (common ragweed, Ambrosia elatior), soybean (Glycine max), barnyardgrass (Echinochloa crus-galli), oilseed rape (Brassica napus), waterhemp (common waterhemp, Amaranthus rudis), and velvetleaf (Abutilon theophrasti) were planted into a blend of loam soil and sand and treated preemergence with test chemicals formulated in a non-phytotoxic solvent mixture which included a surfactant.
as §1

[3] = tested on: barnyardgrass (Echinochloa crus-galli); assay: as above
From the text: as §2, §1

[4] = tested on: lambsquarters (Chenopodium album); assay: as above
From the text: as §2, §1

[5] = tested on: velvetleaf (Abutilon theophrasti); assay: as above
From the text: as §2, §1

[6] = tested on: blackgrass (Alopecurus myosuroides); assay: as above
From the text: as §2, §1

[7] = tested on: pigweed (Amaranthus retroflexus); assay: as above
From the text: as §2, §1

[8] = tested on: morningglory (Ipomoea coccinea); assay: as above
From the text: as §2, §1

[9] = tested on: crabgrass, large (large crabgrass, Digitaria sanguinalis); assay: as above
From the text: as §2, §1

corn (Zea mays) = assay: as above
From the text: as §2, §1

[10] = tested on: foxtail, giant (giant foxtail, Setaria faberii); assay: as above
From the text: as §2, §1

[11] = tested on: waterhemp (common waterhemp, Amaranthus rudis); assay: as above
From the text: as §2, §1

[12] = tested on: oilseed rape (Brassica napus); assay: as above
From the text: as §2, §1

[13] = tested on: johnsongrass (Sorghum halepense); assay: as above
From the text: as §2, §1

[14] = Postemergence, 31 g ai/ha, 0 to 100 scale (0 no effect, 100 complete control)
[15] = Postemergence, 125 g ai/ha, scale 0 to 100, 0 is no effect, 100 is complete control
[16] = Postemergence, 250 g ai/ha, scale 0 to 100, 0 no effect, 100 complete control, 13 to 15 d
[17] = postemergence, 62 g ai/ha, scale 0 to 100, 0 no effect, 100 complete control

CC(=O)Oc1c(C)nn(C)c(=O)c1-c1c(C)oc2ccc(C)cc12 [Compound 14, 5-(acetyloxy)-4-(2,5-dimethyl-3-benzofuranyl)-2,6-dimethyl-3(2H)-pyridazinone]
Oat, Wild plant response rating [1, 14]: 10 | Plant response rating, Oat, Wild [1, 15]: 40 | Plant response rating, Oat, Wild [1, 16]: 45 | Oat, Wild plant response rating [1, 17]: 30 | Kochia plant response rating (kochia (Kochia scoparia); [14]): 85 | Plant response rating, Kochia (kochia (Kochia scoparia); [15]): 90 | Plant response rating, Kochia (kochia (Kochia scoparia); [16]): 90 | Kochia plant response rating (kochia (Kochia scoparia); [17]): 85 | Wheat plant response rating [2, 14]: 0 | Plant response rating, Wheat [2, 15]: 5 | Plant response rating, Wheat [2, 16]: 5 | Wheat plant response rating [2, 17]: 0 | Barnyardgrass plant response rating [3, 14]: 5 | Plant response rating, Barnyardgrass [3, 15]: 55 | Plant response rating, Barnyardgrass [3, 16]: 60 | Barnyardgrass plant response rating [3, 17]: 5 | Lambsquarters plant response rating [4, 14]: 80 | Plant response rating, Lambsquarters [4, 15]: 80 | Plant response rating, Lambsquarters [4, 16]: 90 | Lambsquarters plant response rating [4, 17]: 80 | Velvetleaf plant response rating [5, 14]: 10 | Plant response rating, Velvetleaf [5, 15]: 40 | Plant response rating, Velvetleaf [5, 16]: 40 | Velvetleaf plant response rating [5, 17]: 20 | Blackgrass plant response rating [6, 14]: 0 | Plant response rating, Blackgrass [6, 15]: 5 | Plant response rating, Blackgrass [6, 16]: 20 | Blackgrass plant response rating [6, 17]: 0 | Pigweed plant response rating [7, 14]: 55 | Plant response rating, Pigweed [7, 15]: 70 | Plant response rating, Pigweed [7, 16]: 90 | Pigweed plant response rating [7, 17]: 70 | Morningglory plant response rating [8, 14]: 65 | Plant response rating, Morningglory [8, 15]: 100 | Plant response rating, Morningglory [8, 16]: 100 | Morningglory plant response rating [8, 17]: 85 | Crabgrass, Large plant response rating [9, 14]: 5 | Plant response rating, Crabgrass, Large [9, 15]: 30 | Plant response rating, Crabgrass, Large [9, 16]: 35 | Crabgrass, Large plant response rating [9, 17]: 5 | Corn plant response rating (corn (Zea mays); [14]): 0 | Plant response rating, Corn (corn (Zea mays); [15]): 0 | Plant response rating, Corn (corn (Zea mays); [16]): 5 | Corn plant response rating (corn (Zea mays); [17]): 0 | Foxtail, Giant plant response rating [10, 14]: 20 | Plant response rating, Foxtail, Giant [10, 15]: 50 | Plant response rating, Foxtail, Giant [10, 16]: 50 | Foxtail, Giant plant response rating [10, 17]: 45 | Waterhemp plant response rating [11, 14]: 5 | Plant response rating, Waterhemp [11, 15]: 50 | Plant response rating, Waterhemp [11, 16]: 40 | Waterhemp plant response rating [11, 17]: 10 | Oilseed Rape plant response rating [12, 14]: 0 | Plant response rating, Oilseed Rape [12, 15]: 0 | Plant response rating, Oilseed Rape [12, 16]: 0 | Oilseed Rape plant response rating [12, 17]: 0 | Johnsongrass plant response rating [13, 14]: 0 | Plant response rating, Johnsongrass [13, 15]: 0 | Plant response rating, Johnsongrass [13, 16]: 5 | Johnsongrass plant response rating [13, 17]: 0

CC(=O)Oc1c(C)nn(C)c(=O)c1-c1c(C)oc2c(C)cc(C)cc12 [Compound 16, 5-(acetyloxy)-2,6-dimethyl-4-(2,5,7-trimethyl-3-benzofuranyl)-3(2H)-pyridazinone]
Oat, Wild plant response rating [1, 14]: 5 | Plant response rating, Oat, Wild [1, 15]: 10 | Plant response rating, Oat, Wild [1, 16]: 40 | Oat, Wild plant response rating [1, 17]: 5 | Kochia plant response rating (kochia (Kochia scoparia); [14]): 0 | Plant response rating, Kochia (kochia (Kochia scoparia); [15]): 20 | Plant response rating, Kochia (kochia (Kochia scoparia); [16]): 25 | Kochia plant response rating (kochia (Kochia scoparia); [17]): 0 | Wheat plant response rating [2, 14]: 0 | Plant response rating, Wheat [2, 15]: 0 | Plant response rating, Wheat [2, 16]: 0 | Wheat plant response rating [2, 17]: 0 | Barnyardgrass plant response rating [3, 14]: 5 | Plant response rating, Barnyardgrass [3, 15]: 70 | Plant response rating, Barnyardgrass [3, 16]: 90 | Barnyardgrass plant response rating [3, 17]: 70 | Lambsquarters plant response rating [4, 14]: 10 | Plant response rating, Lambsquarters [4, 15]: 40 | Plant response rating, Lambsquarters [4, 16]: 20 | Lambsquarters plant response rating [4, 17]: 60 | Velvetleaf plant response rating [5, 14]: 5 | Plant response rating, Velvetleaf [5, 15]: 20 | Plant response rating, Velvetleaf [5, 16]: 35 | Velvetleaf plant response rating [5, 17]: 5 | Blackgrass plant response rating [6, 14]: 0 | Plant response rating, Blackgrass [6, 15]: 5 | Plant response rating, Blackgrass [6, 16]: 40 | Blackgrass plant response rating [6, 17]: 5 | Pigweed plant response rating [7, 14]: 40 | Plant response rating, Pigweed [7, 15]: 30 | Plant response rating, Pigweed [7, 16]: 50 | Pigweed plant response rating [7, 17]: 30 | Morningglory plant response rating [8, 14]: 45 | Plant response rating, Morningglory [8, 15]: 60 | Plant response rating, Morningglory [8, 16]: 40 | Morningglory plant response rating [8, 17]: 50 | Crabgrass, Large plant response rating [9, 14]: 5 | Plant response rating, Crabgrass, Large [9, 15]: 20 | Plant response rating, Crabgrass, Large [9, 16]: 30 | Crabgrass, Large plant response rating [9, 17]: 20 | Corn plant response rating (corn (Zea mays); [14]): 0 | Plant response rating, Corn (corn (Zea mays); [15]): 0 | Plant response rating, Corn (corn (Zea mays); [16]): 0 | Corn plant response rating (corn (Zea mays); [17]): 0 | Foxtail, Giant plant response rating [10, 14]: 55 | Plant response rating, Foxtail, Giant [10, 15]: 70 | Plant response rating, Foxtail, Giant [10, 16]: 80 | Foxtail, Giant plant response rating [10, 17]: 60 | Waterhemp plant response rating [11, 14]: 5 | Plant response rating, Waterhemp [11, 15]: 5 | Plant response rating, Waterhemp [11, 16]: 5 | Waterhemp plant response rating [11, 17]: 5 | Oilseed Rape plant response rating [12, 14]: 0 | Plant response rating, Oilseed Rape [12, 15]: 10 | Plant response rating, Oilseed Rape [12, 16]: 0 | Oilseed Rape plant response rating [12, 17]: 0 | Johnsongrass plant response rating [13, 14]: 0 | Plant response rating, Johnsongrass [13, 15]: 0 | Plant response rating, Johnsongrass [13, 16]: 5 | Johnsongrass plant response rating [13, 17]: 0
